A short description of data set [1]: AUClast in rat at 2 mg/kg, po. Set-up: time 0 - last, dose 2 mg/kg, route po. The following applies: in vivo. The class given is ADME, organism-based.
Data set [2] can be described thus: Drug concentration in rat at 2 mg/kg, po measured after 24 hrs. Conditions: in vivo; for concentration at 24 h: read-out: Drug uptake; for Drug uptake: po, 2 mg/kg, 24 h, BLD = below limit of detection. Type of data set: ADME, organism-based.
The nature of data set [3]: Volume of distribution at steady state in rat at 2 mg/kg, po or 0.5 mg/kg, iv. Type of data set: ADME, organism-based. Conditions: in vivo.
Data set [4] is described as follows: Volume of distribution at steady state in dog at 1 mg/kg, po or 0.5 mg/kg, iv. The class given is ADME, organism-based, Canis lupus familiaris. Conditions: in vivo.
Data set [5] can be described thus: Volume of distribution at steady state in cynomolgus monkey at 1 mg/kg, po or 0.5 mg/kg, iv. The class given is ADME, organism-based, Macaca fascicularis. The following applies: in vivo.
The nature of data set [6]: Oral bioavailability in rat at 2 mg/kg. The class given is ADME, organism-based. Conditions: in vivo.
A short description of data set [7]: Oral bioavailability in dog at 1 mg/kg. Type of data set: ADME, organism-based, Canis lupus familiaris. Conditions: in vivo.
Data set [8] in a line: Oral bioavailability in cynomolgus monkey at 1 mg/kg. The class given is ADME, organism-based, Macaca fascicularis. Conditions: in vivo.

For the molecule `COc1cc(OCc2coc(N3CCOCC3)n2)c2cc(-c3cn4nc(OC)sc4n3)oc2c1`, the AUC(0-t) in data set [1] came out at 13.1 µM·h. Also, in data set [2], the concentration at 24 h amounted to 69 nM.

In the case of `COc1cc(OCc2csc(-c3ccc(S(C)(=O)=O)cc3)n2)c2cc(-c3cn4nc(OC)sc4n3)oc2c1`, the AUC(0-t) in data set [1] was 0.26 µM·h. For the same molecule, the concentration at 24 h in data set [2] was 2 nM.

Regarding `COc1cc(OCc2csc(N3CC4CCC(C3)O4)n2)c2cc(-c3cn4nc(OC)sc4n3)oc2c1`, in data set [1], the AUC(0-t) was determined as 1.9 µM·h. In addition, the concentration at 24 h in data set [2] came to 12 nM.

On to `COc1cc(OCc2cccc(-c3ccc(C#N)cn3)c2)c2cc(-c3cn4nc(OC)sc4n3)oc2c1`, for which, in data set [1], the AUC(0-t) turned out to be 0.91 µM·h. Besides, the concentration at 24 h in data set [2] was found to be 13 nM.

In data set [1], `CNC(=O)c1ccc(-c2nc(COc3cc(OC)cc4oc(-c5cn6nc(OC)sc6n5)cc34)cs2)cc1` registered an AUC(0-t) of 0.04 µM·h. The Drug uptake entry in data set [2] is “Bld”.

`COc1cc(OCc2csc(-c3ccccc3)n2)c2cc(-c3cn4nc(OC)sc4n3)oc2c1` displayed an AUC(0-t) in data set [1] of 8 µM·h. Moreover, the concentration at 24 h in data set [2] came to 89 nM.

The molecule `COc1cc(OCc2csc(-c3ccc(C(=O)N4CCC(F)(F)C4)cc3)n2)c2cc(-c3cn4nc(OC)sc4n3)oc2c1` gave an AUC(0-t) in data set [1] of 0.58 µM·h. The concentration at 24 h in data set [2] was found to be 1.8 nM.

In data set [1], `COc1cc(OCc2csc(N3CCCOCC3)n2)c2cc(-c3cn4nc(OC)sc4n3)oc2c1` registered an AUC(0-t) of 5 µM·h. Further, in data set [2], the concentration at 24 h is 49 nM.

The molecule `COc1cc(OCc2cccc(-c3ccc(C(F)(F)F)cn3)c2)c2cc(-c3cn4nc(OC)sc4n3)oc2c1` came in with an AUC(0-t) in data set [1] of 0.83 µM·h. The Drug uptake entry in data set [2] was “Bld”.

On to `COc1cc(OCc2nc(N3CCOCC3)sc2C)c2cc(-c3cn4nc(OC)sc4n3)oc2c1`, for which the AUClast in data set [1] is 23.7 µM·h. Besides, the concentration at 24 h in data set [2] is 230 nM. Further, the Vdss was determined as 1.4 L/kg in data set [3], 5.9 L/kg in data set [4] and 11 L/kg in data set [5]. In data set [6], this molecule returned an F of 21%. In addition, the bioavailability in data set [7] stood at 19%; in data set [8], 26%.

`COc1cc(OCc2cccc(-c3ccc(C#N)cc3)c2)c2cc(-c3cn4nc(OC)sc4n3)oc2c1` yielded an AUC(0-t) in data set [1] of 1.2 µM·h. For the same molecule, in data set [2], the concentration at 24 h turned out to be 13 nM.

Molecule `COc1cc(OCc2cccc(-c3ccoc3)c2)c2cc(-c3cn4nc(OC)sc4n3)oc2c1` gave an AUC(0-t) in data set [1] of 10.9 µM·h. Further, in data set [2], the concentration at 24 h came out at 140 nM.

In data set [1], `COc1cc(OCc2csc(-c3ccc(C(C)(C)O)cc3)n2)c2cc(-c3cn4nc(OC)sc4n3)oc2c1` returned an AUC(0-t) of 0.92 µM·h. Moreover, the concentration at 24 h in data set [2] was 6.7 nM.

Consider `COc1cc(OCc2csc(-c3ccc(C(N)=O)cc3)n2)c2cc(-c3cn4nc(OC)sc4n3)oc2c1`, for which the Drug uptake entry in data set [2] is on record as “Bld”.

In data set [1], `COc1cc(OCc2cccc(-c3cnc(OC)cn3)c2)c2cc(-c3cn4nc(OC)sc4n3)oc2c1` showed an AUC(0-t) of 1.4 µM·h. Besides, the concentration at 24 h in data set [2] is 7.7 nM.

Consider `COc1cc(OCc2csc(N3CCN(C)CC3)n2)c2cc(-c3cn4nc(OC)sc4n3)oc2c1`, for which the AUC(0-t) in data set [1] amounted to 1.8 µM·h. Besides, in data set [2], the concentration at 24 h came to 5 nM.

With `COc1cc(OCc2cccc(-c3cnc(OC)nc3)c2)c2cc(-c3cn4nc(OC)sc4n3)oc2c1`, the AUC(0-t) in data set [1] came to 2 µM·h. In addition, the concentration at 24 h in data set [2] is 29 nM.

In data set [1], `COc1cc(OCc2nc(N3CCOCC3)sc2C(F)(F)F)c2cc(-c3cn4nc(OC)sc4n3)oc2c1` displayed an AUC(0-t) of 2.4 µM·h. Besides, the concentration at 24 h in data set [2] was 14 nM.

Consider `COc1cc(OCc2csc(N3CCCCC3)n2)c2cc(-c3cn4nc(OC)sc4n3)oc2c1`, for which the AUC(0-t) in data set [1] was 21.6 µM·h. Also, the concentration at 24 h in data set [2] stood at 340 nM.

`COc1cc(OCc2csc(-c3ccc(C(F)(F)F)cc3)n2)c2cc(-c3cn4nc(OC)sc4n3)oc2c1` gave an AUC(0-t) in data set [1] of 1.3 µM·h. Besides, the concentration at 24 h in data set [2] came out at 9 nM.

In turn, `COc1cc(OCc2csc(-c3ccc(C(=O)N4CCCC4)cc3)n2)c2cc(-c3cn4nc(OC)sc4n3)oc2c1` came in with an AUC(0-t) in data set [1] of 3 µM·h. Moreover, the concentration at 24 h in data set [2] was 4.7 nM.

In turn, `COc1ccc(-c2cccc(COc3cc(OC)cc4oc(-c5cn6nc(OC)sc6n5)cc34)c2)nc1` came in with an AUC(0-t) in data set [1] of 3.3 µM·h. Besides, in data set [2], the concentration at 24 h was determined as 22 nM.

Take `COc1cc(OCc2csc(C3CCC(F)(F)CC3)n2)c2cc(-c3cn4nc(OC)sc4n3)oc2c1`: the AUC(0-t) in data set [1] turned out to be 0.8 µM·h. Moreover, the concentration at 24 h in data set [2] came to 21 nM.

Take `COc1cc(OCc2csc(C3CCOCC3)n2)c2cc(-c3cn4nc(OC)sc4n3)oc2c1`: in data set [1], the AUC(0-t) was 3.7 µM·h. In addition, the concentration at 24 h in data set [2] was determined as 28 nM.

In the case of `COc1cc(OCc2cccc(-c3ccc(OC)nc3)c2)c2cc(-c3cn4nc(OC)sc4n3)oc2c1`, in data set [1], the AUC(0-t) came out at 3.5 µM·h. Besides, the concentration at 24 h in data set [2] amounted to 19 nM.

Regarding `COc1cc(OCc2csc(N3CCOCC3)n2)c2cc(-c3cn4nc(OC)sc4n3)oc2c1`, the AUC(0-t) in data set [1] came to 16.2 µM·h. The concentration at 24 h in data set [2] stood at 240 nM.

Molecule `COc1cc(OCc2ccnc(-c3ccccc3)n2)c2cc(-c3cn4nc(OC)sc4n3)oc2c1` registered an AUC(0-t) in data set [1] of 7.4 µM·h. For the same molecule, the concentration at 24 h in data set [2] amounted to 94 nM.

As to `COc1cc(OCc2cccc(OCc3ccccc3)c2)c2cc(-c3cn4nc(OC)sc4n3)oc2c1`, in data set [1], the AUC(0-t) was found to be 0.66 µM·h. Further, the concentration at 24 h in data set [2] was 3 nM.

In data set [1], `COc1cc(OCc2ccccc2)c2cc(-c3cn4nc(OC)sc4n3)oc2c1` yielded an AUC(0-t) of 5.5 µM·h. In data set [2], the concentration at 24 h amounted to 46 nM.

With `COc1cc(OCc2cccc(N3CCOCC3)n2)c2cc(-c3cn4nc(OC)sc4n3)oc2c1`, in data set [1], the AUC(0-t) is 7.3 µM·h. In data set [2], the concentration at 24 h amounted to 93 nM.

As to `COc1cc(OCc2ccnc(N3CCOCC3)n2)c2cc(-c3cn4nc(OC)sc4n3)oc2c1`, in data set [1], the AUC(0-t) stood at 7.5 µM·h. Besides, the concentration at 24 h in data set [2] was 86 nM.

Molecule `COc1cc(OCc2cc(C(F)(F)F)ccc2C)c2cc(-c3cn4nc(OC)sc4n3)oc2c1` registered an AUC(0-t) in data set [1] of 1.9 µM·h. Further, the concentration at 24 h in data set [2] was 12 nM.

`COc1cc(OCc2csc(-c3ccc(C(=O)N(C)C)cc3)n2)c2cc(-c3cn4nc(OC)sc4n3)oc2c1` [BMS-986141] returned an AUClast in data set [1] of 3.1 µM·h. Further, in data set [2], the concentration at 24 h amounted to 4.7 nM. Further, the Vdss in data set [3] is 2.7 L/kg; in data set [4], 2.7 L/kg; in data set [5], 14 L/kg. The F in data set [6] stood at 31%. For the same molecule, the bioavailability came out at 25% in data set [7] and 36% in data set [8].

For orientation: AUC(0-t) means the area under the concentration-time curve up to a stated or last time point. The bioavailability is dose-corrected exposure relative to a reference, in per cent.

The values above are taken from ChEMBL document CHEMBL5143717 (J Med Chem, 2022).
